From patent US20250161273A1, “PHARMACEUTICAL COMPOSITION COMPRISING DIPHENYLDIAZOLE DERIVATIVES AND METHODS OF USE” (MODAG GMBH, priority 2022, published 2025)
Read-outs that look alike come from different tables or passages of the source.

Assay: phase 1 first-in-human trial, food effect study (FES) PK
Assay type: in vivo
Details: for AUC(0-t) / Cmax / half-life / Tmax: 150 mg; for half-life: read-out: T1/2 (geometric mean) (converted)
Procedure: Anle138b was studied in a single-centre, double-blind, randomised, placebo-controlled single ascending dose (SAD) and multiple ascending dose (MAD) study in healthy subjects. Eligible participants were randomly assigned (1:1 for sentinel subjects and 1:5 for main group) to placebo or anle138b (dose ranging from 50 mg to 300 mg per day), respectively. In addition, the effect of food on the pharmacokinetics (PK) of anle138b in healthy subjects was examined at doses of 150 mg per day (FES, food effect study). Participants were randomized to treatment sequence (fed→fasted) or (fasted→fed). Treatment for the SAD, MAD and FES arms of the study was administered orally in hard gelatin capsules containing either 10 mg or 30 mg of anle138b with excipient (i.e., lauroyl polyoxyl-32 glycerides) or excipient only. The primary endpoints were safety and tolerability, the secondary endpoint was pharmacokinetics. Data from all randomized individuals were evaluated. [Clinicaltrials.gov-identifier: NCT04208152. EudraCT-number: 2019-004218-33]
This dose was administered either i) after a standard FDA-approved high-fat breakfast or ii) in the fasted state, i.e., fasted from all food and drink (except water) for a minimum of 8 h prior to dosing. In total, one cohort of 12 subjects was randomised in a 1:1 ratio to 2 treatment sequences (fed→fasted) or (fasted→fed). A minimum washout of at least 5 half-lives of anle138b between each dose was assured.
Secondary outcome measures were the oral PK of single (SAD) and multiple (MAD) ascending doses of anle138b in the fasted state as well as the effect of co-administration with food on the PK of anle138b. To this end PK blood samples were taken at day 1 (and for MAD day 7) pre-dose and at 0.5, 1, 1.5, 2, 3, 4, 6, 8, 10, 12, 16 and 20 h post-administration, at days 2 to 6 pre-dose only (MAD) and 24, 30, 36 and 48 h post final dose. Analysis of anle138b in plasma was done at Aptuit. Time point of last quantifiable data was seen to increase with an increase in dose as follows: SAD: from the 50 mg dose (subjects ranged between 8-24 h) to the 300 mg dose (subjects ranged between 36-48 h). MAD: from the 100 mg dose (subjects ranged between 8-36 h) to the 300 mg dose (subjects ranged between 20-48 h). In FES, subjects ranged between 24-48 h.
where μ=[…] is the intercept and β is the slope from the linear model. Using this model it is possible to estimate β (measure of dose proportionality) and obtain 90% confidence interval (CI) for β (Gough, 1995; Smith, 2000). The estimate of β together with its 90% CI (βI, βu) was used to quantify the degree of non-proportionality. In MAD, formal statistical analysis was performed on the PK parameters AUC0-tau and Cmax to assess dose accumulation. Log-transformed AUC0-tau and Cmax was subjected to a mixed-effects model with treatment (dose level), day (day 1 or 7) and treatment-by-day interaction as fixed effects and subject as a random effect. The adjusted means obtained from the model, including differences for each comparison of interest and the associated 90% CIs, was back-transformed on the log scale to obtain adjusted geometric means, adjusted geometric mean ratios (GMRs) and 90% CIs of the ratio. The GMRs and 90% CIs were provided for each treatment and overall, i.e., day 7/day 1. In the FES, formal statistical analysis was performed on the PK parameters Cmax, AUC0-last and AUC0-24 to assess the effects of food on anle138b. The PK parameters underwent a natural logarithmic transformation and were analysed using a mixed-effect model with terms for treatment (i.e., prandial state), period and sequence as fixed effects and subject nested within sequence as a random effect. Adjusted GMRs and 90% CIs for the adjusted GMRs for the comparison between fed and fasted states were provided where the ratios are defined as fed/fasted.

Structure (SMILES): Brc1cccc(-c2cc(-c3ccc4c(c3)OCO4)n[nH]2)c1 [anle138b, 3-(1,3-benzodioxol-5-yl)-5-(3-bromophenyl)-1H-pyrazole]
- effect of food on Cmax (in words) (150 mg single dose, fed vs fasted): decreased by about half
- AUC(0-t) (human, plasma, oral, 150 mg single dose, fasted, read-out: AUC0-24 range): 433 to 2720 ng·h/mL
- Cmax (human, plasma, oral, 150 mg single dose, fasted, read-out: Cmax range): 225 to 1420 ng/mL
- AUC(0-t) (human, plasma, oral, 150 mg single dose, fed, read-out: AUC0-24 range): 378 to 1920 ng·h/mL
- Cmax (human, plasma, oral, 150 mg single dose, fed, read-out: Cmax range): 110 to 479 ng/mL
- bioavailability (human, plasma, oral, 150 mg single dose, 90% CI: 61%, 84%, read-out: dose bioavailable in the fed state compared to the fasted state): ~74%
- AUC(0-t) (human, plasma, po, healthy volunteers, single oral 150 mg, fasted, read-out: AUC(0-24) (geometric mean)): ~896 ng·h/mL
- AUC(0-t) (human, plasma, po, healthy volunteers, single oral 150 mg, fasted, read-out: AUC(0-last) (geometric mean)): 888 ng·h/mL
- Cmax (human, plasma, po, healthy volunteers, single oral 150 mg, fasted, read-out: Cmax (geometric mean)): ~442 ng/mL
- half-life (human, plasma, po, healthy volunteers, single oral 150 mg, fasted): 11.3 h
- Tmax (human, plasma, po, healthy volunteers, single oral 150 mg, fasted, read-out: Tmax (median)): 1.25 h
- Tmax (human, plasma, po, healthy volunteers, single oral 150 mg, fasted, read-out: Tmax (range)): 1 to 2 h
- Tmax (human, plasma, po, healthy volunteers, single oral 150 mg, fed (high-fat breakfast), read-out: Tmax (median)): 3 h
- Tmax (human, plasma, po, healthy volunteers, single oral 150 mg, fed (high-fat breakfast), read-out: Tmax (range)): 1.5 to 3 h
- AUC(0-t) (human, plasma, po, healthy volunteers, single oral 150 mg, fed, read-out: AUC(0-24) (geometric mean)): ~641 ng·h/mL
- AUC(0-t) (human, plasma, po, healthy volunteers, single oral 150 mg, fed, read-out: AUC(0-last) (geometric mean)): 668 ng·h/mL
- Cmax (human, plasma, po, healthy volunteers, single oral 150 mg, fed, read-out: Cmax (geometric mean)): ~196 ng/mL
- half-life (human, plasma, po, healthy volunteers, single oral 150 mg, fed): 15.2 h
- ratio of fasted AUC(0-24) to fed AUC(0-24) (single dose, healthy subject): less than 1.5
